Test systems include SF-295 CNS; T-47D breast; MCF7 breast; CAKI-1 renal; SNB-19 CNS; NCI-H522 lung; UACC-62 melanoma; NCI-H460 lung; UO-31 renal; CCRF-CEM leukemia; PC-3 prostate; A498 renal; SK-MEL-28 melanoma; SF-539 CNS; K-562 leukemia; NCI-H226 lung; SR leukemia; OVCAR-5 ovarian; 786-0 renal; SF-268 CNS.
Common to all, as to assay: NCI tumour cell line growth inhibition, 48 h

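Dose response: 5 concentrations. Exposure: 48 h. Format: 96-well plates. Endpoint: linear interpolation; highest concentration if not reached. TGI is the concentration that stops growth completely.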

For the molecule `C=CCN1C(=O)/C(=C/c2ccccc2)NC1=S`, the TGI in the assay with SF-295 CNS, in the assay with T-47D breast, in the assay with MCF7 breast, with CAKI-1 renal, in the assay with SNB-19 CNS and in the assay on NCI-H522 lung was more than 100 µM each time. Moreover, the TGI in the assay with UACC-62 melanoma, in the assay with NCI-H460 lung, with UO-31 renal, with CCRF-CEM leukemia, in the assay with PC-3 prostate and in the assay with A498 renal was more than 100 µM in each case. The TGI in the assay with SK-MEL-28 melanoma, in the assay with SF-539 CNS, in the assay with K-562 leukemia, in the assay on NCI-H226 lung, in the assay with SR leukemia and with OVCAR-5 ovarian was more than 100 µM in each case. Further, the TGI in the assay with 786-0 renal and with SF-268 CNS was more than 100 µM each time.

For `Cc1ccc(S(=O)(=O)OC2C3OC(C)(C)OC3OC2C(c2cc(O)c3c(c2O)C(=O)c2ccccc2C3=O)c2cc(O)c3c(c2O)C(=O)c2ccccc2C3=O)cc1` (stereo not given), the TGI with SF-295 CNS, in the assay with T-47D breast, in the assay with MCF7 breast, in the assay on CAKI-1 renal, in the assay on SNB-19 CNS and with NCI-H522 lung was more than 10 µM each time. For the same molecule, the TGI in the assay with UACC-62 melanoma, with NCI-H460 lung, in the assay on UO-31 renal, in the assay on CCRF-CEM leukemia, with PC-3 prostate and with A498 renal was more than 10 µM each time. Moreover, the TGI in the assay on SK-MEL-28 melanoma, in the assay on SF-539 CNS, with K-562 leukemia, in the assay on NCI-H226 lung, with SR leukemia and in the assay with OVCAR-5 ovarian was more than 10 µM each time. The TGI in the assay on 786-0 renal and with SF-268 CNS was more than 10 µM throughout.

Turning to `C=C1CC[C@@]2(OC1)OC1C[C@H]3[C@@H]4CC=C5C[C@@H](O)CC(OC6OCC(OC(=O)[C@@H](O)[C@@H](C)CC)C(OC(C)=O)C6OC6OC(C)C(O)C(O)C6O)[C@]5(C)[C@H]4CC[C@]3(C)C1[C@@H]2C` (stereo not given in full), the TGI in the assay with SF-295 CNS is 3.27 µM; in the assay with T-47D breast it was more than 10 µM; in the assay with MCF7 breast it was 3.23 µM; with CAKI-1 renal, 7.85 µM; with SNB-19 CNS it was 3.87 µM; in the assay on NCI-H522 lung, 3.27 µM. Moreover, the TGI came to 3.37 µM in the assay with UACC-62 melanoma; 3.32 µM in the assay on NCI-H460 lung; 4.56 µM in the assay on UO-31 renal; 3.43 µM in the assay with CCRF-CEM leukemia; 3.16 µM in the assay on PC-3 prostate; 3.44 µM in the assay with A498 renal. Further, the TGI in the assay on SK-MEL-28 melanoma was 4.58 µM; in the assay with SF-539 CNS, 5.21 µM; with K-562 leukemia, 4.71 µM; with NCI-H226 lung it was 6.01 µM; with SR leukemia, 4.4 µM; in the assay on OVCAR-5 ovarian, 4.89 µM. The TGI in the assay on 786-0 renal came out at 3.27 µM; with SF-268 CNS, 4.12 µM.

As to `O=C(CCc1ccc(O)cc1)NCCc1ccc(O)cc1`, the TGI in the assay on SF-295 CNS, in the assay on T-47D breast, in the assay on MCF7 breast, in the assay on CAKI-1 renal, in the assay on SNB-19 CNS and in the assay with NCI-H522 lung was more than 100 µM in each case. Moreover, the TGI in the assay with UACC-62 melanoma, with NCI-H460 lung, in the assay on UO-31 renal, in the assay on CCRF-CEM leukemia, with PC-3 prostate and with A498 renal was more than 100 µM each time. In addition, the TGI with SK-MEL-28 melanoma, in the assay with SF-539 CNS, in the assay on K-562 leukemia, with NCI-H226 lung, in the assay with SR leukemia and with OVCAR-5 ovarian was more than 100 µM each time. Moreover, the TGI with 786-0 renal and in the assay with SF-268 CNS was more than 100 µM throughout.

Take `O=c1[nH]nc(-c2cccc(Br)c2)[nH]1`: the TGI with SF-295 CNS, in the assay on T-47D breast, with MCF7 breast, with CAKI-1 renal, in the assay with SNB-19 CNS and in the assay on NCI-H522 lung was more than 100 µM each time. The TGI with UACC-62 melanoma, in the assay on NCI-H460 lung, in the assay on UO-31 renal, in the assay with CCRF-CEM leukemia, with PC-3 prostate and in the assay with A498 renal was more than 100 µM each time. Further, the TGI in the assay on SK-MEL-28 melanoma, with SF-539 CNS, in the assay with K-562 leukemia, in the assay on NCI-H226 lung, in the assay on SR leukemia and with OVCAR-5 ovarian was more than 100 µM in each case. The TGI in the assay with 786-0 renal and in the assay on SF-268 CNS was more than 100 µM throughout.

With `Nc1nc(Cl)cc(NCC2(CO)CC(OCc3ccccc3)C2)n1` (stereo not given), the TGI in the assay with SF-295 CNS is more than 100 µM; in the assay on T-47D breast, 41.9 µM; with MCF7 breast, more than 100 µM; in the assay with CAKI-1 renal, more than 100 µM; with SNB-19 CNS it was more than 100 µM; in the assay with NCI-H522 lung it was more than 100 µM. Further, the TGI is more than 100 µM with UACC-62 melanoma; more than 100 µM in the assay with NCI-H460 lung; more than 100 µM in the assay with UO-31 renal; more than 100 µM in the assay on CCRF-CEM leukemia; more than 100 µM with PC-3 prostate; 86.5 µM in the assay with A498 renal. The TGI in the assay on SK-MEL-28 melanoma, with SF-539 CNS, with K-562 leukemia, with NCI-H226 lung, in the assay on SR leukemia and with OVCAR-5 ovarian was more than 100 µM throughout. Besides, the TGI in the assay with 786-0 renal was more than 100 µM; in the assay on SF-268 CNS, 74.8 µM.

In the case of `CCOC(=O)/C(O)=C(/C=NC(=S)c1ccncc1)C(=O)OCC`, the TGI in the assay on SF-295 CNS is more than 100 µM; in the assay on T-47D breast, more than 100 µM; in the assay with MCF7 breast, more than 100 µM; with CAKI-1 renal it was more than 100 µM; in the assay on SNB-19 CNS it was 97 µM; in the assay with NCI-H522 lung, more than 100 µM. The TGI with UACC-62 melanoma, in the assay on NCI-H460 lung, in the assay on UO-31 renal, in the assay with CCRF-CEM leukemia, in the assay on PC-3 prostate and in the assay with A498 renal was more than 100 µM in each case. In addition, the TGI in the assay with SK-MEL-28 melanoma, in the assay with SF-539 CNS, with K-562 leukemia, with NCI-H226 lung, in the assay on SR leukemia and in the assay with OVCAR-5 ovarian was more than 100 µM throughout. The TGI with 786-0 renal and with SF-268 CNS was more than 100 µM each time.

With `COC12C=CC(CC1)C(C)(C)C2=O` (stereo not given), the TGI in the assay on SF-295 CNS, in the assay with T-47D breast, with MCF7 breast, in the assay with CAKI-1 renal, with SNB-19 CNS and with NCI-H522 lung was more than 100 µM in each case. Further, the TGI in the assay with UACC-62 melanoma, in the assay with NCI-H460 lung, in the assay on UO-31 renal, in the assay with CCRF-CEM leukemia, with PC-3 prostate and in the assay with A498 renal was more than 100 µM throughout. Besides, the TGI with SK-MEL-28 melanoma, with SF-539 CNS, in the assay with K-562 leukemia, in the assay with NCI-H226 lung, in the assay on SR leukemia and in the assay with OVCAR-5 ovarian was more than 100 µM throughout. The TGI with 786-0 renal and in the assay on SF-268 CNS was more than 100 µM in each case.

On to `CC(C)NC(=O)OCc1c(COC(=O)NC(C)C)c(-c2ccc[n+](COC(=O)CC(C)(C)C)c2)n2c1CCC2`, for which the TGI in the assay on SF-295 CNS, with T-47D breast, in the assay on MCF7 breast, in the assay on CAKI-1 renal, with SNB-19 CNS and in the assay with NCI-H522 lung was more than 100 µM throughout. For the same molecule, the TGI with UACC-62 melanoma, in the assay on NCI-H460 lung, in the assay with UO-31 renal, in the assay on CCRF-CEM leukemia, with PC-3 prostate and in the assay with A498 renal was more than 100 µM each time. For the same molecule, the TGI in the assay with SK-MEL-28 melanoma, in the assay with SF-539 CNS, with K-562 leukemia, in the assay with NCI-H226 lung, in the assay with SR leukemia and in the assay with OVCAR-5 ovarian was more than 100 µM each time. Further, the TGI with 786-0 renal and in the assay on SF-268 CNS was more than 100 µM each time.

As to `CCSc1nc(N2CCOCC2)c2cn[nH]c2n1`, the TGI in the assay on SF-295 CNS, in the assay on T-47D breast, with MCF7 breast, in the assay on CAKI-1 renal, with SNB-19 CNS and with NCI-H522 lung was more than 100 µM each time. The TGI was more than 100 µM with UACC-62 melanoma; more than 100 µM with NCI-H460 lung; more than 100 µM with UO-31 renal; more than 100 µM in the assay with CCRF-CEM leukemia; more than 100 µM with PC-3 prostate; 15.9 µM in the assay with A498 renal. The TGI in the assay on SK-MEL-28 melanoma, in the assay on SF-539 CNS, in the assay on K-562 leukemia, in the assay on NCI-H226 lung, with SR leukemia and in the assay on OVCAR-5 ovarian was more than 100 µM throughout. Also, the TGI in the assay on 786-0 renal and in the assay on SF-268 CNS was more than 100 µM each time.

The record behind these values is PubChem BioAssay (NCI).
